ChEMBL document CHEMBL1201862, “PubChem BioAssay data set” (2004)
Active and inactive are the calls of the source.

Key:
[1] = target: T1, Streptokinase A (Streptococcus pyogenes serotype M1, UniProt P10520); assay: viability-normalized secreted streptokinase activity reduction – plasminogen activation absorbance, OD405, dose response (AID 1914); type: functional, Streptococcus pyogenes M1 GAS;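 further: secreted streptokinase activity via plasminogen activation per viability signal from cell pellet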
T1 sequence (P10520 whole entry): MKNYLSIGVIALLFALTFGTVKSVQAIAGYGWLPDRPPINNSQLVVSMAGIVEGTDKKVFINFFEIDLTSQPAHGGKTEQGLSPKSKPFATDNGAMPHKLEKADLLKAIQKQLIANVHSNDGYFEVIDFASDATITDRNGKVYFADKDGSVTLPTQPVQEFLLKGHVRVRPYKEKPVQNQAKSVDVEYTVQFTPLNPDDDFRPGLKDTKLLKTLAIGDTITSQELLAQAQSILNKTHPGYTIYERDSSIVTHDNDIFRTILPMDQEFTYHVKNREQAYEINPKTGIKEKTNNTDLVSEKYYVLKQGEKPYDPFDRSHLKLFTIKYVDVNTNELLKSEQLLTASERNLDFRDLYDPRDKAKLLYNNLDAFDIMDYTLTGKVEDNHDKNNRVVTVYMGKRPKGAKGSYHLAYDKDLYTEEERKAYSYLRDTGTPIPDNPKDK

[2] = system: Streptococcus; assay: GAS UMAA2166 growth inhibition – luminescence, BacTiterGlo, counter-screen for streptokinase expression inhibitor project, dose response (AID 1915); type: functional, organism-based;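 further: potency for reduction of bacterial viability or growth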
[3] = system: Streptococcus sp. 'group A'; assay: Streptococcus pyogenes SK(-)GAS viability under kanamycin – luminescence, BacTiterGlo, confirmation, counter-screen for streptokinase expression inhibitor project, dose response (AID 1900); type: functional, organism-based
[4] = system: H9c2; assay: cells; type: functional, cell-based; details: Rattus norvegicus, H9c2, Myocardium;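 further: confirmatory concentration-response retest of ultra-high-throughput screening hits for modulation of myocardial damage; cell death induced by hydrogen peroxide oxidative stress; compound pretreatment for 60 min then peroxide exposure for 2 h; potency is for protecting the cells against peroxide damage rather than for killing them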
[5] = target: FAD-linked sulfhydryl oxidase ALR (Homo sapiens, UniProt P55789); assay: ALR-catalysed DTT oxidation blockers – biochemical, H2O2 detection, luminescence, cherry-pick, dose response (AID 493248)
Chain of FAD-linked sulfhydryl oxidase ALR (P55789 whole entry): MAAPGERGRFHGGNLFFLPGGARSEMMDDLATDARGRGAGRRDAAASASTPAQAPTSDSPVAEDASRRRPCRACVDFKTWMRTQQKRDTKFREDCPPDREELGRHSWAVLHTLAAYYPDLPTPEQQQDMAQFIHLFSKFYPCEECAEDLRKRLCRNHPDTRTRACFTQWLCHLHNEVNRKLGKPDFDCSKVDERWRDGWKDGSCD

[6] = Trypanosoma cruzi growth suppression in host cells – NIH3T3 host cells, beta-gal luminescence, confirmation (AID 2044); type: functional, cell-based;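 further: intracellular parasites grown in NIH/3T3 mouse fibroblasts as host cells; luminescent beta-galactosidase reporter signal from transgenic T. cruzi replicating inside host cells; inhibitors lower the luminescence signal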
[7] = NIH3T3 cell viability loss – ATP luminescence, mouse fibroblasts, counter-screen, dose response (AID 2010); type: functional, cell-based;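 further: cells exposed to compound for about 90 hours before reading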
[8] = target: T2, Corticotropin-releasing factor receptor 2/Corticotropin-releasing factor-binding protein (Homo sapiens, UniProt P24387+Q13324); assay: activators of CRF receptor 2 with binding protein – uHTS hits, confirmation (AID 602473); type: functional; details: read-out: EC50_Mean
T2 sequence (Q13324 whole entry): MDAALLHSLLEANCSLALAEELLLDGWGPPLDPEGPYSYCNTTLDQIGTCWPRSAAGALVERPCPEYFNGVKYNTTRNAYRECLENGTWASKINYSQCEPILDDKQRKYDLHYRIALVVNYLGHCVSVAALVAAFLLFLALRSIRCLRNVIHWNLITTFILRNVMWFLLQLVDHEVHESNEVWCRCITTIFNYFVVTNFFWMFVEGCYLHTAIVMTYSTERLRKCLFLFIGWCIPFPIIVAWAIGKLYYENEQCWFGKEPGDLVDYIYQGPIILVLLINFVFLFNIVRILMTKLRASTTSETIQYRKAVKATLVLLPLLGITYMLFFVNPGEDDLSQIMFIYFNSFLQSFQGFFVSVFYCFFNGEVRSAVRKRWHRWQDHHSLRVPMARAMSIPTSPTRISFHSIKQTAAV
T2 sequence (P24387 whole entry): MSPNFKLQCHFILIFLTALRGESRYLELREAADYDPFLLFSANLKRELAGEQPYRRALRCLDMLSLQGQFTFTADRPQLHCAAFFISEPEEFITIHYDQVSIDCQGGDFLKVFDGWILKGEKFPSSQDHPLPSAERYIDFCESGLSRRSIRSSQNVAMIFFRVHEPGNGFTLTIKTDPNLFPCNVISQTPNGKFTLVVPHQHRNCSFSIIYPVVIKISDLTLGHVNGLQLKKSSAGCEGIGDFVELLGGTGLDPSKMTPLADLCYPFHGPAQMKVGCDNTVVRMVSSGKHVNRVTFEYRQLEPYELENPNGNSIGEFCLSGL

[9] = target: T3, Cytochrome P450 1A2 (Homo sapiens, UniProt P05177);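 further: PubChem cytochrome P450 panel assay, CYP1A2 panel member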
T3 sequence (P05177 whole entry): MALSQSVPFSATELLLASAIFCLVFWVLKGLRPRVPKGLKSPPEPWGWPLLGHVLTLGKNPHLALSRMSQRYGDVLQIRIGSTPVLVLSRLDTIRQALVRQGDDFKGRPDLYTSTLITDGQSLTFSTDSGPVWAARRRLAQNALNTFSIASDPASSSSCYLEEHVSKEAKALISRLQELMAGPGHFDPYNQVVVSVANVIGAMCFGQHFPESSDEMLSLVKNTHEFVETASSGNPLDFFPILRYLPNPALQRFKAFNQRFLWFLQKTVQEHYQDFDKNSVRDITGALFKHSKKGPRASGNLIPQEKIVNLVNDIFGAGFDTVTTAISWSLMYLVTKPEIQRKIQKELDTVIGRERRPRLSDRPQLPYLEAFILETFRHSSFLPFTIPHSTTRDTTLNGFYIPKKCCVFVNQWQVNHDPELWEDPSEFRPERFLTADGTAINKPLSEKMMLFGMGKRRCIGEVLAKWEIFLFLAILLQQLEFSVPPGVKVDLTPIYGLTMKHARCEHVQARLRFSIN

[10] = target: Cytochrome P450 2D6 (Homo sapiens, UniProt P10635);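 further: CYP2D6 member of a cytochrome P450 panel assay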
Chain of Cytochrome P450 2D6 (P10635 whole entry): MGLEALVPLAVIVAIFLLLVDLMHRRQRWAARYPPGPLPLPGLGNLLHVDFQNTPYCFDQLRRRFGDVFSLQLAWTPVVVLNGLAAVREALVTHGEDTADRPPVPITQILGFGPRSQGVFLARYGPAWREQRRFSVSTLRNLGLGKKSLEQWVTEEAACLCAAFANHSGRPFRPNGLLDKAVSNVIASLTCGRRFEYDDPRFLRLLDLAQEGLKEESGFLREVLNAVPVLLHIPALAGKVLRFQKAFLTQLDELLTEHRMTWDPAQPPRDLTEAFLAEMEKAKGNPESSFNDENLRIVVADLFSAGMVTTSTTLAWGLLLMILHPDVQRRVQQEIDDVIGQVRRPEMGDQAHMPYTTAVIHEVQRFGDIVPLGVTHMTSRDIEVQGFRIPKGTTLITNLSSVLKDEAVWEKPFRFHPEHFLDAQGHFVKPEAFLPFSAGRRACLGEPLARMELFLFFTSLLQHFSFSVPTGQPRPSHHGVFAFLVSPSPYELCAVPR

[11] = target: T4, Rac GTPase-activating protein 1 (Homo sapiens, UniProt Q9H0H5); assay: blockers of MgcRacGAP-driven Rac1 GTP hydrolysis – biochemical, ADP Hunter fluorescence, primary and confirmatory, confirmation (AID 624330); type: functional
T4 sequence (Q9H0H5 whole entry): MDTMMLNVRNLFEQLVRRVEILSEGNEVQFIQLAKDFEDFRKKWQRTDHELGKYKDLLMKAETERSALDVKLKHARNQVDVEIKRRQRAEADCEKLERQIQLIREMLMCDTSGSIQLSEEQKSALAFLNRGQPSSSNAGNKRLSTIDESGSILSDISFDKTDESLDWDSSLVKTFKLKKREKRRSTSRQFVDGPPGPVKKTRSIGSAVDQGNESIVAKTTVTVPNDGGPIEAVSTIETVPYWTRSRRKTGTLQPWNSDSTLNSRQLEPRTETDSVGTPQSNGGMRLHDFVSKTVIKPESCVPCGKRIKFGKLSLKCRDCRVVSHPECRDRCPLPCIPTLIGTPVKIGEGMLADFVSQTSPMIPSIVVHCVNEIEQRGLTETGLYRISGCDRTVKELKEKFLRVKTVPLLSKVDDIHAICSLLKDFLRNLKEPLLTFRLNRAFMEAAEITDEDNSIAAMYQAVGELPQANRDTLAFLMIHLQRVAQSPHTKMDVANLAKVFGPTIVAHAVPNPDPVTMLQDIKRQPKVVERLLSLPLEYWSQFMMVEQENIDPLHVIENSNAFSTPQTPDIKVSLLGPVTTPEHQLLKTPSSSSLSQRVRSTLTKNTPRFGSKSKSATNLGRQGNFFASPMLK

[12] = system: INS1; assay: INS-1E survival protection against cytokine death – cell-based, luminescence, retest, dose response (AID 449756); type: functional; details: Rattus norvegicus;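 further: cell death triggered by IL-1 beta plus TNF-alpha plus IFN-gamma mixture; protective hits raise ATP signal compared with cytokine alone wells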
[13] = Luminescence Cell-Based Dose Retest to Confirm Inhibitors of Cancer Stem Cells. [Related pubchem assays (depositor defined):AID2717, AID2721]; type: functional; details: Homo sapiens

## O=C(NNC(=S)NC(=O)c1ccccc1)c1ccc(O)cc1
[1]
  EC50: > 150 µM (not active)
[2]
  EC50: 52.4 µM (inconclusive)
[3]
  EC50: 4.64 µM (active)

## O=C(CCc1nc(O)c2ccccc2n1)N1CCN(S(=O)(=O)c2cccc(F)c2)CC1
[4]
  IC50: > 79 µM (inactive)

## O=C(COC(=O)CCc1nc(O)c2ccccc2n1)Nc1ccc2c(c1)OCO2
[4]
  IC50: > 79 µM (inactive)

## Oc1ccccc1CNc1cnc2ccccc2c1
[5]
  AC50: 37.9 µM (active)

## COc1ccc(-c2cc(C#N)nc(N3CCN(C)CC3)n2)cc1
[6]
  EC50: 1.95 µM (active)
[7]
  EC50: > 30 µM (not active)

## CN(Cc1nc(-c2ccccn2)no1)S(=O)(=O)c1ccc(Cl)cc1
[8]
  EC50: > 53 µM (inactive)

## COCCn1c(C2CCCCC2)nc2sc3ccccc3c(=O)c2c1=O
[6]
  EC50: 2.28 µM (active)
[7]
  EC50: > 60 µM (not active)

## O=C(Nc1nc2ccccc2n1Cc1ccccc1)c1ccc(COc2ccccc2[N+](=O)[O-])o1
[6]
  EC50: 1.25 µM (active)
[7]
  EC50: > 60 µM (inconclusive)
[9]
  AC50: 1.78 µM (inconclusive)
[10]
  AC50: 17.8 µM (inconclusive)

## CCn1cc(C(=O)NC(=S)Nc2ccccc2Br)cn1
[1]
  EC50: > 150 µM (not active)
[2]
  EC50: > 150 µM (not active)
[3]
  EC50: > 150 µM (not active)

## Cn1nnnc1SC1CC(=O)N(c2ccccc2)C1=O (configuration not stated)
[6]
  EC50: 3.7 µM (active)
[7]
  EC50: 7.1 µM (active)

## O=C(Nc1ccc(O)cc1)c1cc(S(=O)(=O)N2CCCC2)ccc1Cl
[5]
  AC50: 2.49 µM (active)

## Cc1cc(C)c(S(=O)(=O)Nc2ccc(O)cc2)c(C)c1
[11]
  IC50: 69.7 µM (active)
[5]
  AC50: 0.694 µM (active)

## CCCc1cc(N2CCN(C(=O)c3ccco3)CC2)n2c(nc3ccccc32)c1C#N
[4]
  IC50: > 79 µM (inactive)

## Cc1ccc(Cl)cc1N1CCN(Cc2cc3c(cc2O)CCC3)CC1
[6]
  EC50: 2.65 µM (active)
[7]
  EC50: > 60 µM (not active)

## COc1ccc(-n2c(/C=C/c3ccc(O)cc3)nc3ccccc3c2=O)cc1
[4]
  IC50: > 79 µM (inactive)

## Nc1cc(O)nc(SCc2csc(-c3ccccc3)n2)n1
[5]
  AC50: 5.71 µM (active)

## Nc1n[nH]c(Nc2ccccc2)n1
[5]
  AC50: 1.79 µM (active)

## CCC(CC)C(=O)c1c[nH]c(C(=O)NCc2ccccn2)c1
[12]
  AC50: > 260 µM (inactive)

## COc1ccc2c(c1)NC(C)(C)C=C2C
[6]
  EC50: 2.71 µM (active)
[7]
  EC50: > 60 µM (not active)

## CN1C(=O)C(=C/C=C/Nc2ccccc2)C(=O)N(C)C1=O
[8]
  EC50: > 53 µM (inactive)

## Cc1ccc2ccc(C(Nc3ccccn3)c3ccccc3)c(O)c2n1 (configuration not stated)
[1]
  EC50: > 150 µM (not active)
[2]
  EC50: 63.5 µM (active)
[3]
  EC50: 1.52 µM (active)

## COc1ccccc1N1CCN(CCc2nnc(S)n2-c2ccccc2)CC1
[5]
  AC50: 2.88 µM (active)

## COc1ccc(C2CC(c3ccccc3)=NN2C(=O)COC(=O)c2nc3nc(C)cc(C)n3n2)cc1 (configuration not stated)
[6]
  EC50: 3.19 µM (active)
[7]
  EC50: > 60 µM (not active)

## Cc1sc2nc(SCC(=O)NCc3ccco3)nc(O)c2c1C
[4]
  IC50: > 79 µM (inactive)

## Cc1ccc(/C=C2\C(=O)NC(=O)N(Cc3ccccc3Cl)C2=O)o1
[5]
  AC50: 0.494 µM (active)

## CCOC(=O)c1c(NC(=O)C[n+]2ccc(N(C)C)cc2)sc(C)c1C
[6]
  EC50: 1.44 µM (active)
[7]
  EC50: > 60 µM (not active)

## CC(c1nnc(S)n1-c1ccc(F)cc1)N1CCCCC1 (configuration not stated)
[5]
  AC50: 5.03 µM (active)

## CN1/C(=C\C(=O)c2ccco2)C(C)(C)c2ccccc21
[12]
  AC50: 6.55 µM (active)

## COc1ccc(OC)c(CCNC(=O)C(=O)Nc2ccc3nc4n(c(=O)c3c2)CCCCC4)c1
[1]
  EC50: 16.6 µM (active)
[2]
  EC50: 18.3 µM (active)
[3]
  EC50: 4.97 µM (active)

## COCCCN1C(=O)/C(=C/c2ccc(CNS(=O)(=O)c3ccccc3)o2)C(C(=O)OC)=C1C
[1]
  EC50: > 150 µM (not active)
[2]
  EC50: > 150 µM (not active)
[3]
  EC50: 28.9 µM (active)

## O=C(CCc1nc(O)c2ccccc2n1)NCCN1C(=O)S/C(=C\c2ccc(OC(F)F)cc2)C1=O
[4]
  IC50: > 79 µM (inactive)

## Cc1csc2nc(COC(=O)c3ccc(Cl)c([N+](=O)[O-])c3)cc(=O)n12
[4]
  IC50: > 79 µM (inactive)

## C[C@H](CO)N1C[C@H](C)[C@@H](CN(C)C(=O)Nc2ccc3c(c2)OCO3)Oc2c(NC(=O)Nc3ccc(C(F)(F)F)cc3)cccc2C1=O
[4]
  IC50: 21.3 µM (active)

## Cc1ccccc1OCC(=O)NNC(=O)Cn1[nH]c(=O)c2ccccc2c1=O
[4]
  IC50: > 79 µM (inactive)

## COc1cccc(-c2cc3nc(C)c(C)c(N4CCN(C(=O)c5ccoc5)CC4)n3n2)c1
[4]
  IC50: > 79 µM (inactive)

## Cn1c(/C=N/NC(=O)c2ccccc2)nc2ccccc21
[4]
  IC50: 13.5 µM (active)

## O=C(N/N=C/c1cccc(O)c1)c1cc(-c2ccc3c(c2)OCO3)[nH]n1
[4]
  IC50: > 79 µM (inactive)

## CNC(=S)N/N=C/c1ccc(N2CCOCC2)s1
[6]
  EC50: > 60 µM (not active)
[11]
  IC50: 28.3 µM (active)
[7]
  EC50: > 60 µM (not active)

## CCN(CC)c1ccc(/C=N/NC(=O)CCC(=O)NCc2ccccc2)c(O)c1
[2]
  EC50: 4.53 µM (active)
[12]
  AC50: 1.7 µM (active)
[13]
  AC50: 5.66 µM (active)
[3]
  EC50: 3.22 µM (active)

## Nc1ccc(Cl)cc1/C(=N/O)c1ccccc1
[5]
  AC50: 22.8 µM (active)

## CC(=N\Nc1ccccc1)/C(=N/O)C(=O)Nc1ccccc1
[5]
  AC50: 2.49 µM (active)
